The record followed here is patent US20220267390A1, “MPS MODIFIED PEPTIDES AND USE THEREOF” (The Regents of the University of California, priority 2019, published 2022).

Where a SMILES comes first, the peptide text is derived from it. [ ]: non-standard residue; d: D form.

Test [1] relates to bleomycin-induced pulmonary fibrosis. Kind of test: Bleomycin-induced pulmonary fibrosis. Format: in vivo, C57BL/6J mice. The following applies: 7 mg/kg i.p. every two days, against nintedanib (28 mg/kg) and MPS peptide (28 mg/kg). On the procedure: FIGS. 20A and 20B show suppressive effects of MPS peptide on pulmonary fibrosis in vivo. C57BL/6 mice were intraperitoneally given either PBS, nintedanib (28 mg/kg), MPS peptide (28 mg/kg) or MPS-12042 (7 mg/kg) at the dosage of every two days after 9 days of intratracheal exposure with one shot of saline or bleomycin (33 μg in […] of saline, n=5). (FIG. 20A) Representative Masson trichrome and immunohistochemical staining of phospho-MARCKS (Ser159/163) and phospho-AKT (Ser473) (n=6). (FIG. 20B) Hydroxyproline level in the left lung of mice as described above was determined by a hydroxyproline ELISA assay (mean±SD, *p<0.05).
MPS peptide potentially serves as an antifibrotic agent in bleomycin-induced pulmonary fibrosis. Bleomycin remains the standard agent for induction of experimental pulmonary fibrosis in animals^23. Thus, 8-week-old female C57BL/6J mice received saline or bleomycin intratracheally (33 μg in […] of saline) as previously described^23. Lung specimens from bleomycin- or saline-treated mice were collected and subjected to immunofluorescence staining. […] Next, lung fibroblast cells isolated from saline- or bleomycin-treated mice (two mice fibroblast cell lines were gifts from Dr. Sem H. Phan, University of Michigan School of Medicine, MI) were incubated with either 100 μM control or MPS peptide for 48 hours. […]

The test system of the next test is H1650 cells. Format: cell-based. The protocol:
IC50 (half maximal inhibitory concentration; μM) values in lung cancer cells. […] The residues marked in red/bold are D-isoforms of amino acids (SEQ ID NOS: 57, 48-54, 40-42 45 and 47 in order of appearance).
Molecular basis of MPS peptide and its potential for increasing nintedanib efficacy. […] A kinetic assay confirmed that this peptide binds PIP2 with a dissociation constant of 17.64 nM (FIG. 10B). As expected, a decrease of PIP3 pools in whole cell lysates of MPS-treated IPF fibroblasts was observed (FIG. 10C), supporting the notion that MPS peptide is able to inhibit AKT activation through trapping PIP2. In view of adverse effects of the current IPF therapeutic nintedanib^9, 10, there is an urgent clinical need to improve the efficacy of such treatment in IPF. Since the TGF-β receptor is not a direct target of nintedanib, targeting an element of TGF-β signaling in tandem with nintedanib administration circumvents the shortcomings of nintedanib monotherapy. […] Based on the above observations, it is assumed that TGF-β-directed phospho-MARCKS is a bypass mechanism of activating PI3K/AKT signaling (FIG. 11B); therefore, it seems reasonable that MARCKS inhibition by MPS treatment may improve nintedanib efficacy, permitting lower doses of nintedanib to be used. To this end, the possibility of a synergistic interaction between MPS and nintedanib in order to circumvent the shortcomings of nintedanib monotherapy was tested. […] Furthermore, the Chou and Talalay CI (combination index) method^25 was used to evaluate the therapeutic interactions between nintedanib and MPS peptide. […] Particularly, the values were lower than 1 at ED50, approximately 1 at ED75, and above 1 at ED90 (data not shown). Thus, the combination effect was dose-dependently correlated with the components, and therefore low dose nintedanib in combination with low dose of MPS presents a synergistic effect on cell proliferation. […] On the basis of the sequences of MPS peptide, the rearrangement of PIP2-binding sites in this peptide were designed and synthesized with the intention of enhancing the efficacy and stability of the MPS peptide. FIG. 13 lists the sequences of various MPS derivatives. In light of the cleavage sites of various proteases and PIP2 binding motifs, Applicant replaced some L-isoform amino acids with D-isoform and these peptides were named as MPS-12042 and MPS-22026. To further validate the efficacy of the above MPS derivatives, Applicant performed a dose-course analysis of H1650 cells undergoing each MPS derivative treatment.

The test system of the next test is normal fibroblasts. As to the kind of experiment: Normal lung fibroblast proliferation (MTS/MTT assay). Type of test: cell-based, human. As to conditions: 1 μM. On the procedure: (§1) FIG. 14: Comparison of MPS-12042 (SEQ ID NO: 45) versus know tyrosine kinase inhibitor (TKLs) on the treatment of IPF fibroblast cells. Both normal and IPF lung fibroblast cells were treated with various drugs. After 72 hours, cells were subjected to MTT assays and IC50 for each drug was determined.
Human primary fibroblast cells were obtained from airway tissues provided from the UC Davis Medical Hospital (Sacramento, Calif.) with consent. The protocol for human tissue procurement and usage were periodically reviewed and approved by the University Human Subject Research Review Committee. Primary fibroblast cell lines, IPF-1 and IPF-2 cells, were established from IPF patients. […]
Cells were seeded onto 96-well plates at a density of 5-10×10^3 cells per well and cultured for the indicated treatment. Cell proliferation was evaluated using a MTS assay kit (Promega, Madison, Wis.). Twenty microliters of the combined MTS/PMS solution was added into each well, incubated for 3 hours at 37° C., and the absorbance was measured at 490 nm by using an ELISA reader. […] After 72 hours, both attached and detached cells were collected and then stained with 0.2% trypan blue (0.1% final concentration), and the number of trypan blue-positive and -negative cells was counted using a haemocytometer under low-power microscopy. […]
Background: Formazan colour is commonly taken as a measure of viable cells.

The next test relates to IPF fibroblast cells. Kind of test: cells. Format: cell-based, human. The protocol: as §1
Human primary fibroblast cells were obtained from airway tissues provided from the UC Davis Medical Hospital (Sacramento, Calif.) with consent. The protocol for human tissue procurement and usage were periodically reviewed and approved by the University Human Subject Research Review Committee. Primary fibroblast cell lines, IPF-1 and IPF-2 cells, were established from IPF patients. Cells were obtained from lung biopsies and the diagnosis of IPF was supported by patient history, physical examination, pulmonary function tests, and typical high-resolution chest computed tomography findings of IPF. […] All patients fulfilled the criteria for the diagnosis of IPF as established by the American Thoracic Society and European Respiratory Society. Non-fibrotic primary control adult human lung fibroblast lines, Normal-1 and Normal-2 cells were used. These lines were established from normal lung tissue or histologically normal lung tissue adjacent to carcinoid tumor. The IPF cell line, LL97A, was purchased from the American Type Culture Collection (ATCC) (Manassas, Va.). Lung fibroblast lines were cultured in high-glucose DMEM or RPMI-1640 medium with 10% fetal bovine serum and 1% penicillin-streptomycin at 37° C. in a humidified atmosphere of 5% CO2. Fibroblasts were used between passages 4 and 8. Cells were characterized as fibroblasts as described^26.
Cells were seeded onto 96-well plates at a density of 5-10×10^3 cells per well and cultured for the indicated treatment. Cell proliferation was evaluated using a MTS assay kit (Promega, Madison, Wis.). Twenty microliters of the combined MTS/PMS solution was added into each well, incubated for 3 hours at 37° C., and the absorbance was measured at 490 nm by using an ELISA reader. For Trypan blue test, cells were plated on 12-well plates and treated with the indicated chemotherapeutic agents. After 72 hours, both attached and detached cells were collected and then stained with 0.2% trypan blue (0.1% final concentration), and the number of trypan blue-positive and -negative cells was counted using a haemocytometer under low-power microscopy. For colony-forming assays, 200 cells were seeded in each well of six-well plates. IPF-1 or IPF-2 primary cells were treated with peptides at the indicated concentrations for 10 days. Colonies were stained using 0.001% crystal violet and the number of colonies with a diameter greater than 0.5 mm was counted under an inverted microscope.

As for `CC(C)C[C@@H](NC(=O)[C@@H](CCCCN)NC(=O)[C@@H](Cc1ccccc1)NC(=O)[C@H](C)NC(=O)[C@H](CCCCN)NC(=O)[C@@H](CCCCN)NC(=O)[C@@H](Cc1ccccc1)NC(=O)[C@H](C)NC(=O)[C@@H](Cc1ccccc1)NC(=O)[C@@H](CCCNC(=N)N)NC(=O)[C@H](CCCCN)NC(=O)[C@H](CCCCN)NC(=O)[C@H](CCCCN)NC(=O)[C@H](CCCCN)NC(=O)[C@@H](N)CCCCN)C(=O)N[C@@H](C)C(=O)NCC(=O)N[C@H](Cc1ccccc1)C(=O)N[C@H](C)C(=O)N[C@H](Cc1ccccc1)C(=O)N[C@H](CCCCN)C(=O)N[C@@H](CCCCN)C(=O)N[C@@H](CC(N)=O)C(=O)N[C@H](CCCCN)C(=O)N[C@@H](CCCCN)C(=O)O` [MPS-12042] (H-KKKKK[dR][dF]A[dF][dK]KA[dF][dK][dL]AG[dF][dA][dF][dK]KN[dK]K-OH; N-terminus and C-terminus assumed), the “attenuating phospho-MARCKS and phospho-AKT, reducing overall fibrosis and extracellular matrix deposition in mouse lungs” value in test [1] is reported as “superior efficacy”. Further, the IC50 (in general, the concentration that inhibits the measured activity by half) with H1650 cells was 6 µM; with IPF fibroblast cells (72 h), 1 to 1.5 µM. Also, the decreased cell proliferation result in the test with normal fibroblasts is “not in normal fibroblasts”; in the test on IPF fibroblast cells (1 μM, IPF fibroblast) it was 50%.
